Data on one molecule can be found in patent publication US11203582B2, “Benzamide derivatives for inhibiting endoplasmic reticulum (ER) stress” (The Board of Regents of the University of Oklahoma, priority 2017, dated 2021).

This test concerns INS-1 cells. In words: TUNEL staining of Tm-treated INS-1 cells. It counts as cell-based, rat. Particulars: co-treatment with Tm, 24 h. The procedure: (A) INS-1 cells were treated with or without Tm (0.1 m/mL) in the presence of 13d at indicated concentrations or DMSO for 24 h. Cleaved caspase-3 and PARP were determined by Western blotting. α-Tubulin was used as a loading control. The data shown are representative of 3 independent experiments. (B) INS-1 cells were treated with or without Tm (0.1 m/mL) in the presence of 13d (0.111M) or DMSO for 48 h, and live-cell phase-contrast images were acquired (magnification 10×). The images shown are representative of 3 independent experiments. (C) TUNEL staining of INS-1 cells. INS-1 cells were treated with 0.111 g/mL of Tm with or without compound 13d for 24 h before TUNEL staining. DAPI was used as a nuclear marker. Magnification is 20×. The images shown are representative of 3 independent experiments. (D) Quantification of TUNEL staining from 20 fields of images. ** P<0.01 compared with Tm treatment alone.
To determine whether the increase in β-cell viability following treatment with 13d is caused by a suppression of apoptotic cell death, several apoptosis-related makers were measured. First, levels of cleaved caspase-3 and cleaved PARP were assayed by Western blotting. […]

For the molecule `O=C(NCc1ccc(C(F)(F)F)cc1)c1cccc(CN2CCCCC2)c1` [Compound 13d, N-(4-trifluoromethylphenmethyl)-3-(N-piperidinyl)methyl benzamide], the TUNEL-positive cells was found to be 0.5%.
